Where two headings read alike, the source gives them in different places.
Experiments:
A. corymbifera = assay: Antifungal activity: Minimum Inhibitory Concentration; format: cell-based, Absidia corymbifera NCPF 2001; conditions: A. corymbifera, 27° C., one week; for MIC: Lichtheimia corymbifera, read-out: Minimum Inhibitory Concentration
Protocol: (§1) The antimicrobial activity was determined by inoculation of the test microorganism into suitable growth media containing solutions of the compounds at concentrations of 100, 50, 10, 5, 1.0, 0.5 and 0.1 μg/ml. The reference antibiotics used were Gentamicin for the antibacterial tests and Amphotericin B for the antimycotic and antifungal tests. After incubation the antimicrobial activity was recorded as the Minimal Inhibitory Concentration (M.I.C.), i.e., the lowest concentration preventing macroscopically visible growth, for each test compound against each organism.
(§2) An initial solution of each formula (I) compound to be tested in sterile distilled water was prepared at a concentration of 1000 μg/ml. With appropriate dilutions using sterile distilled water, additional solutions were prepared at concentrations of 500, 100, 50, 10, 5 and 1 μg/ml.
A. corymbifera NCPF 2001
(§3) The A. corymbifera, A. fumigatus, S. schenkii, T. rubrum, T. mentagrophytes, M. canis and P. verrucosa strains were all maintained on Sabouraud-Dextrose Agar (Oxoid CM 41) by incubating for 14 days at 27° C. To prepare the inocula 30 ml volumes of Sabouraud-Liquid medium (Oxoid CM 147) were inoculated from the agar cultures and incubated at 27° C. until heavy uniform growth resulted. The mycelial growth was then broken up by shaking with glass beads.
(§4) 1 Ml aliquots were removed from each of the cultures for the purpose of making viable counts and the cultures were then held at 4° C. The viable counts were made by preparing serial ten-fold dilutions of the cultures in sterile physiological saline and spreading on plates of Sabouraud-Dextrose Agar (Oxoid CM 41) which were then incubated at 27° C. for 14 days. When the viable counts had confirmed that each of the inocula contained approximately 10^6 colony forming units (C.F.U.) per ml the cultures were withdrawn from the refrigerator and used as the inocula for the tests.
(§5) (c) For the tests on each of the remaining seven strains and each of the test and reference compounds, a series of 8 tubes containing 4.5 ml volumes of Sabouraud-Liquid Medium (Oxoid CM 147) were prepared. To 7 of these were added 0.5 ml volumes of the final solutions of the test compounds, giving final concentrations in the broths of 100, 50, 10, 5, 1.0, 0.5 and 0.1 μg/ml. To the eighth tube in each series was added 0.5 ml of the solvent used and diluted as for the preparation of the 500 μg/ml solution of the compound. This tube was used as a growth control. The tubes were then inoculated with 0.1 ml aliquots of the inocula prepared as in "(b) Fungi" above. The tubes were then incubated at 27° C. with continuous shaking for a period of one week. The tubes were then examined for evidence of growth as shown by the presence of mycelial growth in the medium and the lowest concentration of the test compound which prevented fungal growth was recorded as the Minimal Inhibitory Concentration. This test procedure was carried out on two separate days.

P. aeruginosa = assay: Antibacterial activity: Minimum Inhibitory Concentration; format: cell-based, Pseudomonas aeruginosa ATCC 9027; conditions: P. aeruginosa, 37° C., 24 hours; for MIC: Pseudomonas aeruginosa, read-out: Minimum Inhibitory Concentration
Protocol: as §1, §2
(§6) They were cultured and maintained on Tryptone Soy Agar (Oxoid CM 131), with the addition of 10% horse blood for the S. pyogenes.
(§7) To prepare the organisms as inocula for the test, slopes of this medium were streaked with the organisms and incubated at 37° C. for 24 hours. 4.5 Ml volumes of Brian-Heart Infusion Broth (Oxoid CM 225) were then inoculated with a platinum loop from the agar slope cultures and incubated for 24 hours at 37° C. The final inocula were then prepared by adding 0.1 ml aliquots of the Brain-Heart Infusion Broth cultures to 100 ml volumes of sterile physiological saline.
(§8) (a) For the test on each of the bacterial strains and each of the test and reference compounds, a series of 8 tubes containing 4.5 ml volumes of Brain-Heart Infusion Broth (Oxoid CM 225) were prepared. To 7 of these were added 0.5 ml volumes of the final solutions of the test compouns, giving final concentrations in the broths of 100, 50, 10, 5, 1.0, 0.5 and 0.1 μg/ml. To the eighth tube in each series was added 0.5 ml of the solvent used and diluted as for the preparation of the 1000 μg/ml solution of the compound. This tube was used as the growth control. The tubes were inoculated with 0.02 ml aliquots of the inocula prepared in accordance with "(a) Bacteria" above, and incubated at 37° C. for 24 hours. The tubes were then examined for evidence of bacterial growth as shown by turbidity of the medium and the lowest concentration of the test compound which prevented bacterial growth was recorded as the Minimal Inhibitory Concentration. This test procedure was carried out on two separate days.

C. tropicalis = assay: Antimycotic activity: Minimum Inhibitory Concentration; format: cell-based, Candida tropicalis NCPF 3111; conditions: pH 5.5, 37° C., 72 hours; for Minimum Inhibitory Concentrations: C. tropicalis; for MIC: Candida tropicalis, pH 5.5, C. tropicalis, read-out: Minimum Inhibitory Concentrations
Protocol: as §1, §2
The two species, C. albicans and C. tropicalis, were maintained on Sabouraud-Dextrose Agar (Oxoid CM41) and cultures for the preparation of the inoculum were incubated on this agar at 37° C. for 48 hours. 4.5 Ml volumes of citric acid-phosphate buffer pH 5.5 plus Yeast-Nitrogen Base (Difco 0392-15) were then inoculated from the agar cultures and incubated at 37° C. for 48 hours. 0.1 Ml aliquots of these cultures were then added to 100 ml volumes of sterile physiological saline to give the final inocula.
(b) For the tests on each of the C. albicans, C. tropicalis and C. neoformans strains and each of the test and reference compounds, a series of 8 tubes containing 4.5 ml volumes of citric acid-phosphate buffer pH 5.5 plus Yeast-Nitrogen Base (Difco 0392-15) were prepared. To 7 of these were added 0.5 ml volumes of the final solutions of the test compounds, giving final concentrations in the broths of 100, 50, 10, 5, 1.0, 0.5 and 0.1 μg/ml. To the eighth tube in each series was added 0.5 ml of the solvent used and diluted as for the preparation of the 1000 μg/ml solution of the compound. This tube was used as the growth control. The tubes were then inoculated with 0.1 ml aliquots of the inocula prepared as in "(b) Fungi" above. The tubes inoculated with the C. albicans and C. tropicalis were inoculated at 37° C. for 72 hours and the tubes inoculated with the C. neoformans straim were incubated at 30° C. for 72 hours. […] The tubes were then examined for evidence of growth as shown by turbidity of the medium and the lowest concentration of the test compound which prevented fungal growth was recorded as the Minimal Inhibitory Concentration. This test procedure was carried out on two separate days.

E. coli = assay: Antibacterial activity: Minimum Inhibitory Concentration; format: cell-based, Escherichia coli ATCC 8739; conditions: 24 hours; for MIC: Escherichia coli
Protocol: as §1, §2, §6, §7, §8

S. aureus = assay: as above; format: cell-based, Staphylococcus aureus ATCC 6538; conditions: 24 hours; for MIC: Staphylococcus aureus
Protocol: as §1, §2, §6, §7, §8

P. verrucosa = assay: Antifungal activity: Minimum Inhibitory Concentration; format: cell-based, Phialophore verrucosa NCPF 1119; conditions: P. verrucosa, 27° C., one week; for MIC: Phialophora verrucosa, read-out: Minimum Inhibitory Concentration
Protocol: as §1, §2, §3, §4, §5

M. canis = assay: as above; format: cell-based, Microsporum canis NCPF 351; conditions: M. canis, 27° C., one week; for MIC: Microsporum canis, read-out: Minimum Inhibitory Concentration
Protocol: as §1, §2, §3, §4, §5

Molecule	MIC (A. corymbifera; Day 1) [µg/mL]	MIC (A. corymbifera; Day 2) [µg/mL]	MIC (P. aeruginosa; Day 1) [µg/mL]	MIC (P. aeruginosa; Day 2) [µg/mL]	MIC (C. tropicalis; Day 1) [µg/mL]	MIC (C. tropicalis; Day 2) [µg/mL]	MIC (E. coli; Day 1, 37° C.) [µg/mL]	MIC (E. coli; Day 2, 37° C.) [µg/mL]	MIC (S. aureus; Day 1, 37° C.) [µg/mL]	MIC (S. aureus; Day 2, 37° C.) [µg/mL]	MIC (P. verrucosa; Day 1) [µg/mL]	MIC (P. verrucosa; Day 2) [µg/mL]	MIC (M. canis; Day 1) [µg/mL]	MIC (M. canis; Day 2) [µg/mL]	also measured
2,3(5)-dimethyl-1-dodecyl-pyrazolium methosulfate [Example 8-A]															Minimum Inhibitory Concentration (A. corymbifera; Day 1): 100 µg/mL; Minimum Inhibitory Concentration (A. corymbifera; Day 2): 100 µg/mL; Minimum Inhibitory Concentration (P. aeruginosa; Day 1): 50 µg/mL; Minimum Inhibitory Concentration (P. aeruginosa; Day 2): 50 µg/mL; Minimum Inhibitory Concentrations (C. tropicalis; Day 1): 5 µg/mL; Minimum Inhibitory Concentrations (C. tropicalis; Day 2): 5 µg/mL; Minimum Inhibitory Concentration (E. coli; Day 1, 37° C.): 50 µg/mL; Minimum Inhibitory Concentration (E. coli; Day 2, 37° C.): 50 µg/mL; Minimum Inhibitory Concentration (S. aureus; Day 1, 37° C.): 1 µg/mL; Minimum Inhibitory Concentration (S. aureus; Day 2, 37° C.): 0.5 µg/mL; Minimum Inhibitory Concentration (P. verrucosa; Day 1): 10 µg/mL; Minimum Inhibitory Concentration (P. verrucosa; Day 2): 10 µg/mL; Minimum Inhibitory Concentration (M. canis; Day 1): 5 µg/mL; Minimum Inhibitory Concentration (M. canis; Day 2): 1 µg/mL
CCCCCCCCCCCCCCCCn1ccc[n+]1C [Example 3-D, 1-hexadecyl-2-methyl-pyrazolium methosulfate]	10	5	50	10	0.5	0.5	10	5	0.5	0.5	5	5	5	5	
CCCCCCCCCCCCCCn1ccc[n+]1C [Example 3-G, 2-methyl-1-tetradecyl-pyrazolium methosulfate]	10	10	10	10	0.5	0.5	10	10	0.5	0.5	5	5	10	5	
CCCCCCCCCCCCCC[n+]1c(C)cc(C)n1Cc1ccc([N+](=O)[O-])cc1.[Br-] [Example 6-D, 3,5-dimethyl-2(4-nitrobenzyl)-1-tetradecyl-pyrazolium bromide]	50	50	100	50	5	5	50	100	1	0.5	10	10	10	5	
CCCCCCCCCCCCn1ccc[n+]1C [Example 3-E, 1-dodecyl-2-methy-pyrazolium methosulfate]	100	100	50	50	5	1	50	50	1	1	5	10	10	10	

From patent US4207326A, “Antimicrobial quaternary pyrazole derivatives” (Cilag-Chemie A.G., priority 1979, dated 1980)
